From patent publication US12168664B2, “Triazolopyrimidines, their preparation and use” (THE TRUSTEES OF COLUMBIA UNIVERSITY IN THE CITY OF NEW YORK, priority 2018, dated 2024)
Where “and” joins values, the source holds several entries; their conditions need not be identical. Equal values may be shown once.

Legend:
[1] = target: RBP4-TTR interaction (Homo sapiens (Human), UniProt P02753); test: HTRF (TR-FRET) assay for antagonists of retinol-induced RBP4-TTR interaction; format: biochemical; conditions: in the presence of 1 μM retinol
Excerpt: TR-FRET Assay for Retinol-Induced RBP4-TTR Interaction
Binding of a desired RBP4 antagonist displaces retinol and induces hindrance for RBP4-TTR interaction resulting in the decreased FRET signal (FIG. 7). Bacterially expressed MBP-RBP4 and untagged TTR were used in this assay. For the use in the TR-FRET assay, the maltose binding protein (MBP)-tagged human RBP4 fragment (amino acids 19-201) was expressed in the Gold(DE3)pLysS E. coli strain (Stratagene) using the pMAL-c4x vector. Following cell lysis, recombinant RBP4 was purified from the soluble fraction using the ACTA FPLC system (GE Healthcare) equipped with the 5-ml the MBP Trap HP column. Human untagged TTR was purchased from Calbiochem. Untagged TTR was labeled directly with Eu^3+ Cryptate-NHS using the HTRF Cryptate Labeling kit from CisBio following the manufacturer's recommendations. HTRF assay was performed in white low volume 384 well plates (Greiner-Bio) in a final assay volume of 16 μl per well. […] Titration of test compounds in this assay was conducted in the presence of 1 μM retinol. […] TR-FRET signal was measured in the SpectraMax M5e Multimode Plate Reader (Molecular Device). […] The TR-FRET signal was expressed as the ratio of fluorescence intensity: Flu665/Flu620×10,000.
The compounds listed below were tested in two in vitro assays, RBP4 binding (SPA) and retinol-dependent RBP4-TTR interaction (HTRF) (Table 1).

[2] = target: serum RBP4 (Mus musculus (Mouse), UniProt Q00724); test: Serum RBP4 in Abca4−/− mice after 8-week dosing in chow; format: in vivo; conditions: 35 mg/kg daily oral in chow, 8 weeks
Procedure: (§1) Effect of 7a on accumulation of N-retinylidene-N-retinylethanolamine (A2E) in Eyes of the Abca4^−/− Mice
(§2) Animal protocols were approved by the Institutional Animal Care and Use Committee of Columbia University and complied with guidelines set forth by The Association for Research in Vision and Ophthalmology. […] Abca4^−/− (knockout) and C57BL/6J (wild-type control) mice were raised under 12 h on-off cyclic lighting with an in-cage illuminance of 30-50 lux. For long-term oral dosing 7a was formulated into Purina 5035 rodent chow at Research Diets, Inc. (New Brunswick, NJ) to ensure consistent 35 mg/kg daily oral dosing. Animals were administered the AKR-XI-85-containing chow for 8 weeks. Blood samples were collected at baseline and at the end of the dosing period for serum RBP4 measurements. Whole blood was drawn into a centrifuge tube and was let clot at room temperature for 30 min followed by centrifugation at 2,000×g for 15 minutes at +4° C. to collect serum. Serum RBP4 was measured using the RBP4 (mouse/rat) dual ELISA kit (AdipoGen) following the manufacturer's instructions.
To assess pre-clinical efficacy of 7a in the mouse Abca4^−/− model, the compound was formulated into a standard mouse chow to provide the daily oral dosing of 35 mg/kg. Long-term 8-week dosing of the compound formulated into a chow was conducted in Abca4^−/− mice. […]

[3] = target: PPARγ (Homo sapiens (Human), UniProt P37231); test: PPARγ agonist assay (HTRF, PPARγ-NCOR interaction); format: biochemical; conditions: read-out: PPAR γ assay (HTRF) for agonists of this nuclear receptor - IC50
Excerpt: Significant safety issues are associated with the clinical use of PPARγ agonists (increased risk of death, myocardial infarction, stroke, congestive heart failure, hepatotoxicity, peripheral edema, weight gain and carcinogenicity^1-4). We wanted to characterize the compounds we identified in a pilot screen as potential PPARγ agonists. The PPARγ assay is based on agonist-sensitive interaction of the GST-tagged ligand-binding domain (LRD) of the nuclear receptor PPARγ with the biotinylated corepressor NCOR peptide (FIG. 8).
Assay reactions are performed in a final volume of 16 ul.
In well of the 384-well assay plate, mix 6 ul of PPARγ solution, 4 ul of NCOR2 solution and 4 μl of Rosi solution. Test compounds diluted from DMSO stocks to 4× assay concentration in 1×HTRF, 100 mM KF buffer may be dispensed to well instead of Rosi. Negative control wells contained DMSO solvent alone; positive control well contained […]. […] Two μl of detection mix was added per well. […] The plate was incubated for 16 hrs at 4° C.
HTRF signal was measured in the SpectraMax M5e Multimode Plate Reader (Molecular Device). Fluorescence was excited at 337 nm. […] The signal was expressed as the ratio of fluorescence intensity: Flu668/Flu620×10,000. […]

[4] = target: CYP2D6 (Homo sapiens (Human), UniProt P10635); test: CYP inhibition, fluorescent, CYP2D6; format: in vitro ADME
Procedure: (§3) The compounds listed below were tested in various metabolic stability and CYP inhibition assays.

[5] = test system: A2E; test: A2E (bisretinoid) accumulation in eyes of Abca4−/− mice, HPLC of eyecups; format: in vivo; conditions: 35 mg/kg daily oral in chow, 8 weeks, p=0.0007
Procedure: as §1
as §2, with “Blood samples were collected at baseline and at the end of the dosing period for serum RBP4 measurements. Whole blood was drawn into a centrifuge tube and was let clot at room temperature for 30 min followed by centrifugation at 2,000×g for 15 minutes at +4° C. to collect serum.” left out
After the completion of dosing, animals were euthanized and posterior eyecups consisting of sclera, choroid and RPE were prepared from enucleated eyes according to the standard techniques. […] A previously established HPLC method (Journal of Biological Chemistry, 275, 29354-29360) was utilized for quantifying A2E in mouse eyecups. Quantitation of A2E was conducted by manually integrating the A2E peak (approximately 12-min elution time) which was identified by the co-elution with the synthetic A2E standard and by characteristic absorbance spectrum. […]

[6] = Metabolic stability in liver microsomes (HLM); format: in vitro ADME, human
Procedure: as §3

Sequence of PPARγ (P37231 204-505): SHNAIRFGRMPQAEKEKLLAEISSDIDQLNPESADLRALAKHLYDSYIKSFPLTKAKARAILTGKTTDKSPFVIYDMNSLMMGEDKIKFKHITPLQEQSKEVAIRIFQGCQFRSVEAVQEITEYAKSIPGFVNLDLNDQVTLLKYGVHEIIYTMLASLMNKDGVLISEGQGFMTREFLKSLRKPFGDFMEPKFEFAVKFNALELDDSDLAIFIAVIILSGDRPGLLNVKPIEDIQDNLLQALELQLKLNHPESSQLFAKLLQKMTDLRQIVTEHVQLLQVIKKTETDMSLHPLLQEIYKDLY
Sequence of CYP2D6 (P10635 whole entry, species assumed): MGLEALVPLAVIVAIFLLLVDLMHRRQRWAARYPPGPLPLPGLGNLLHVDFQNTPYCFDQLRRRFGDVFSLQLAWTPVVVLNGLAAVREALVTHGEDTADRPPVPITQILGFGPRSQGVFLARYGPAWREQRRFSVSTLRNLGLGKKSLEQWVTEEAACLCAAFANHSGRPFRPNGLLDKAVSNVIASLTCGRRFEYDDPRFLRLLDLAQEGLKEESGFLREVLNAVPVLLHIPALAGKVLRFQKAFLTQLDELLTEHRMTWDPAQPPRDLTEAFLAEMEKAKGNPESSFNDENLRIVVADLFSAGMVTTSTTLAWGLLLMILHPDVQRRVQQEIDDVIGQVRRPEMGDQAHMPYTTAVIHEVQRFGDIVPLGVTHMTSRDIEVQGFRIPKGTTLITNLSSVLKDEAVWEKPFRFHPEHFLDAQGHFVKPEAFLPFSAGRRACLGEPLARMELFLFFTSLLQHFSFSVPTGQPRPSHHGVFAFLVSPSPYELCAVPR

IC50 [1]: 209 nM and 194 nM and 240 nM
serum RBP4 reduction at end of 8-week treatment [2]: Approximately 70%
IC50 [3]: > 100000 nM
IC50 [4]: > 100000 nM
Metabolic stability in liver microsomes: % Remaining at 30 min, HLM [6]: 85%
SMILES: O=C(c1nc2ncccn2n1)N1C[C@H]2C[C@@H](c3ccccc3C(F)(F)F)C[C@H]2C1 [Compound 7a]
A2E reduction vs control chow-treated Abca4−/− animals [5]: 69%
